Test results taken from patent publication US7960389B2, “4(phenyl-piperazinyl-methyl) benzamide derivatives and their use for the treatment of pain or gastrointestinal disorders” (priority 2002, dated 2011).
Read-outs that look alike come from different tables or passages of the source.

What was measured:
[1] = biological target: T1, δ receptors in rat brain membranes (Rattus norvegicus, UniProt P33533); assay: Rat brain functional assay (GTPγ35S binding, rat brain membranes); format: biochemical; conditions: Table 1, relative to SNC80
T1 construct: Rat brain membranes are thawed at 37° C; from tissue; host or cells: rat brain homogenate membranes
T1 sequence (P33533 whole entry): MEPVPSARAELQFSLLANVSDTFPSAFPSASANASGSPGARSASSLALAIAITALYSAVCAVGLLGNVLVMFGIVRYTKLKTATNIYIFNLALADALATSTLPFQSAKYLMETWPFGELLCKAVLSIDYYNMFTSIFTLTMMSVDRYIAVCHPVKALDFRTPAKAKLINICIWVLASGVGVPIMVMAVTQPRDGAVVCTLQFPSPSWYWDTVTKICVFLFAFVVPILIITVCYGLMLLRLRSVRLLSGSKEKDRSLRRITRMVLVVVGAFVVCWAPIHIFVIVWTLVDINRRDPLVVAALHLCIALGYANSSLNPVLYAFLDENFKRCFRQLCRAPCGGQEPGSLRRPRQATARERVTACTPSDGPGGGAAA
Protocol: (§1) • A. Human 293S cells expressing cloned human κ, δ and μ receptors and neomycin resistance are grown in suspension at 37° C. and 5% CO2 in shaker flasks containing calcium-free DMEM10% FBS, 5% BCS, 0.1% Pluronic F-68, and 600 μg/ml geneticin. • B. Rat brains are weighed and rinsed in ice-cold PBS (containing 2.5 mM EDTA, pH 7.4). The brains are homogenized with a polytron for 30 sec (rat) in ice-cold lysis buffer (50 mM Tris, pH 7.0, 2.5 mM EDTA, with phenylmethylsulfonyl fluoride added just prior use to […] from a 0.5M stock in DMSO:ethanol). Membrane Preparation
(§2) The agonist activity of the compounds is measured by determining the degree to which the compounds receptor complex activates the binding of GTP to G-proteins to which the receptors are coupled. In the GTP binding assay, GTP[γ]^35S is combined with test compounds and membranes from HEK-293S cells expressing the cloned human opioid receptors or from homogenised rat and mouse brain. Agonists stimulate GTP[γ]^35S binding in these membranes. The EC50 and Emax values of compounds are determined from dose-response curves. Right shifts of the dose response curve by the delta antagonist naltrindole are performed to verify that agonist activity is mediated through delta receptors. For human δ receptor functional assays, EC50 (low) is measured when the human δ receptors used in the assay were expressed at lower levels in comparison with those used in determining EC50 (high). The Emax values were determined in relation to the standard δ agonist SNC80, i.e., higher than 100% is a compound that have better efficacy than SNC80.
Rat brain membranes are thawed at 37° C., passed 3 times through a 25-gauge blunt-end needle and diluted in the GTPγS binding (50 mM Hepes, 20 mM NaOH, 100 mM NaCl, 1 mM EDTA, 5 mM MgCl2, pH 7.4, Add fresh: 1 mM DTT, 0.1% BSA). 120 μM GDP final is added membranes dilutions. […] The basal and maximal stimulated binding are determined in absence and presence of 3 μM SNC-80

[2] = biological target: T2, human δ receptors (Homo sapiens, UniProt P41143); assay: Human δ receptor functional assay (GTP[γ]35S binding, HEK-293S cell membranes); format: biochemical; conditions: for Emax: relative to standard δ agonist SNC80, receptors expressed at higher levels, read-out: Human δ % EMax (high)
T2 construct: expressed in transfected cells; host or cells: human 293S (HEK-293S) cells
T2 sequence (P41143 whole entry): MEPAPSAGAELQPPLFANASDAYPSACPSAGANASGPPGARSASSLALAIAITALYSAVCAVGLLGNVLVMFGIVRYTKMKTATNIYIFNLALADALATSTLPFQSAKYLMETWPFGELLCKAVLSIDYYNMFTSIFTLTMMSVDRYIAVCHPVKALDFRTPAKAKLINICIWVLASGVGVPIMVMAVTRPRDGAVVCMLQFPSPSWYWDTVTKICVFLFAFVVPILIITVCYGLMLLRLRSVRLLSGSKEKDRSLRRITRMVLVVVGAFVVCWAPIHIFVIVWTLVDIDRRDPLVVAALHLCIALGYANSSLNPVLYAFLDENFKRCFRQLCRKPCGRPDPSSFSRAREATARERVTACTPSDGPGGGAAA
Protocol: as §1
Cells are pelleted and resuspended in lysis buffer (50 mM Tris, pH 7.0, 2.5 mM EDTA, with PMSF added just prior to use to 0.1 mM from a 0.1 M stock in ethanol), incubated on ice for 15 min, then homogenized with a polytron for 30 sec. The suspension is spun at 1000 g (max) for 10 min at 4° C. The supernatant is saved on ice and the pellets resuspended and spun as before. The supernatants from both spins are combined and spun at 46,000 g(max) for 30 min. The pellets are resuspended in cold Tris buffer (50 mM Tris/Cl, pH 7.0) and spun again. The final pellets are resuspended in membrane buffer (50 mM Tris, 0.32 M sucrose, pH 7.0). Aliquots (1 ml) in polypropylene tubes are frozen in dry ice/ethanol and stored at −70° C. until use. The protein concentrations are determined by a modified Lowry assay with sodium dodecyl sulfate.
as §2

[3] = biological target: T2, human δ receptors; assay: Binding assay, membranes of human 293S cells expressing cloned human δ receptors
[4] = biological target: T3, human κ receptors (Homo sapiens, UniProt P41145); assay: Binding assay, membranes of human 293S cells expressing cloned human κ receptors
T3 construct: expressed in transfected cells; host or cells: human 293S cells
T3 sequence (P41145 whole entry): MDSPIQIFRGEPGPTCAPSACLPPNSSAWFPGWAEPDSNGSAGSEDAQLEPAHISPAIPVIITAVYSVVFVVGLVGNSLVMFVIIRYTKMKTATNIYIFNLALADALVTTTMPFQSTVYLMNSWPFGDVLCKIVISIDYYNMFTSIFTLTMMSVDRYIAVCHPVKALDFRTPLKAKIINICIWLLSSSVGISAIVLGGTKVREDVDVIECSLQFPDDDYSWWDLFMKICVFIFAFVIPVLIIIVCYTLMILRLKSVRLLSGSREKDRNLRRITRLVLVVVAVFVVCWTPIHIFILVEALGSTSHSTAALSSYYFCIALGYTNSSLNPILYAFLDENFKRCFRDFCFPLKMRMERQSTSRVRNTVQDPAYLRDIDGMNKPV

Compound	Emax [1]	EC50 [2]	Emax ([2]; Table 1)	IC50 [3]	EC50 ([2]; Table 1, human δ receptors expressed at higher levels, read-out: Human δ EC50 (high))	IC50 ([3]; Table 1, displacement of radioactive δ receptor ligand, read-out: Human δ IC50)	IC50 [4]
CCN(CC)C(=O)c1ccc([C@H](c2cccc(NC(=O)OC)c2)N2CCN(Cc3ccccc3)CC2)cc1 [Compound 1, R-Methyl 3-[(4-[(diethylamino)carbonyl]phenyl)(4-benzyl-piperazin-1-yl)methyl]phenylcarbamate]	135 to 170%	0.55 to 1.93 nM	89 to 102%	0.25 to 0.74 nM			
CCN(CC)C(=O)c1ccc([C@@H](c2cccc(NC(=O)OC)c2)N2CCN(Cc3ccccc3)CC2)cc1 [Compound 2, S-Methyl 3-[(4-[(diethylamino)carbonyl]phenyl)(4-benzyl-piperazin-1-yl)methyl]phenylcarbamate]	135 to 170%	0.55 to 1.93 nM	89 to 102%	0.25 to 0.74 nM			
CCN(CC)C(=O)c1ccc([C@@H](c2cccc(NC(=O)OC)c2)N2CCN(Cc3cccs3)CC2)cc1 [Compound 3, S-Methyl 3-{{4-[(diethylamino)carbonyl]phenyl}[4-(thien-2-ylmethyl)piperazin-1-yl]methyl}phenylcarbamate]	135 to 170%	0.55 to 1.93 nM	89 to 102%	0.25 to 0.74 nM			
CCN(CC)C(=O)c1ccc([C@H](c2cccc(NC(=O)OC)c2)N2CCN(Cc3cccs3)CC2)cc1 [Compound 4, R-Methyl 3-{{4-[(diethylamino)carbonyl]phenyl}[4-(thien-2-ylmethyl)piperazin-1-yl]methyl}phenylcarbamate]	135 to 170%	0.55 to 1.93 nM	89 to 102%	0.25 to 0.74 nM			
CCN(CC)C(=O)c1ccc([C@@H](c2cccc(NC(=O)OC)c2)N2CCN(Cc3ccsc3)CC2)cc1 [Compound 5, S-Methyl 3-{{4-[(diethylamino)carbonyl]phenyl}[4-(thien-3-ylmethyl)piperazin-1-yl]methyl}phenylcarbamate]	135 to 170%	0.55 to 1.93 nM	89 to 102%	0.25 to 0.74 nM			
CCN(CC)C(=O)c1ccc([C@H](c2cccc(NC(=O)OC)c2)N2CCN(Cc3ccsc3)CC2)cc1 [Compound 6, R-Methyl 3-{{4-[(diethylamino)carbonyl]phenyl}[4-(thien-3-ylmethyl)piperazin-1-yl]methyl}phenylcarbamate]	135 to 170%	0.55 to 1.93 nM	89 to 102%	0.25 to 0.74 nM			
CCN(CC)C(=O)c1ccc([C@@H](c2cccc(NC(=O)OC)c2)N2CCN(Cc3ccco3)CC2)cc1 [Compound 7, S-Methyl 3-{{4-[(diethylamino)carbonyl]phenyl}[4-(2-furylmethyl)piperazin-1-yl]methyl}phenylcarbamate]	135 to 170%	0.55 to 1.93 nM	89 to 102%	0.25 to 0.74 nM			
CCN(CC)C(=O)c1ccc([C@H](c2cccc(NC(=O)OC)c2)N2CCN(Cc3ccco3)CC2)cc1 [Compound 8, R-Methyl 3-{{4-[(diethylamino)carbonyl]phenyl}[4-(2-furylmethyl)piperazin-1-yl]methyl}phenylcarbamate]	135 to 170%	0.55 to 1.93 nM	89 to 102%	0.25 to 0.74 nM			
CCN(CC)C(=O)c1ccc([C@@H](c2cccc(NC(=O)OC)c2)N2CCN(Cc3ccoc3)CC2)cc1 [Compound 9]	135 to 170%	0.55 to 1.93 nM	89 to 102%	0.25 to 0.74 nM			
CCN(CC)C(=O)c1ccc([C@H](c2cccc(NC(=O)OC)c2)N2CCN(Cc3ccoc3)CC2)cc1 [Compound 10, R-Methyl 3-{{4-[(diethylamino)carbonyl]phenyl}[4-(3-furylmethyl)piperazin-1-yl]methyl}phenylcarbamate]	135 to 170%	0.55 to 1.93 nM	89 to 102%	0.25 to 0.74 nM			
CCN(CC)C(=O)c1ccc([C@H](c2cccc(NC(=O)OC)c2)N2CCN(Cc3ncc[nH]3)CC2)cc1 [Compound 11, R-Methyl 3-{{4-[(diethylamino)carbonyl]phenyl}[4-(1H-imidazol-2-ylmethyl)piperazin-1-yl]methyl}phenylcarbamate]	135 to 170%		89 to 102%		0.55 to 1.93 nM	0.25 to 0.74 nM	247 to 1640 nM
